Biological target: (recombinant) catalytic domain of human Bub1 (amino acids 704-1085) (Homo sapiens (Human), UniProt O43683)
Assay: Bub1 kinase assay (TR-FRET)
Type: biochemical
Conditions: ATP 10 μM final, peptide substrate 1 μM final, 60 min at 22° C., read-out: Biological Assay: Bub1 kinase assay median IC50
How it was run: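 Compounds were serially diluted 1:3.4 from 2 mM DMSO stocks and incubated with the enzyme reaction for 60 min at 22° C. The reaction was stopped with EDTA, and biotinylated peptide phosphorylation was read by TR-FRET using Eu anti-mouse IgG, anti-phosphoserine antibody and streptavidin-XL665. IC50 was fitted by 4-parameter logistic to inhibition normalized to no-inhibitor and no-enzyme controls.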

Chain of (recombinant) catalytic domain of human Bub1 (amino acids 704-1085) (O43683 704-1085): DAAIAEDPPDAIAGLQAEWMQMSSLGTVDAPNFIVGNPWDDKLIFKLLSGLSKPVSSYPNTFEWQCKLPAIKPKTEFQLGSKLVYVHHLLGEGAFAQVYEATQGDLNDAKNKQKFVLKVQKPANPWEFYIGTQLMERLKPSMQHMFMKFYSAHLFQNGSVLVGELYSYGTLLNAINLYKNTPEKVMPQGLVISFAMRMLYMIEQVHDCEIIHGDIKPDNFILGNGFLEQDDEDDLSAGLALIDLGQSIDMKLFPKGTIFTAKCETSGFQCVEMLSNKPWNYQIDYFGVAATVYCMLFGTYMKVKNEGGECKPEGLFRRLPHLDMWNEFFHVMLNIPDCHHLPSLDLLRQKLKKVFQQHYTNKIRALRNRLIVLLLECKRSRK

Compound | IC50 [nM]
O=C(COCc1ccccc1)Nc1cc(-c2[nH]c3c(c2Nc2ccccc2)C(=O)CCC3)ccn1 [Example 340, 2-(benzyloxy)-N-{4-[4-oxo-3-(phenylamino)-4,5,6,7-tetrahydro-1H-indol-2-yl]pyridin-2-yl}acetamide] | 7.25
CC1(C)CC(=O)c2c([nH]c(-c3ccnc(NC(=O)[C@@H]4C[C@@H]4F)c3)c2Nc2ccccc2)C1 [Example 258] | 6.49
CC1(C)OC[C@@H](C(=O)Nc2cc(-c3[nH]c4c(c3Nc3ccccc3)C(=O)CCC4)ccn2)O1 [Example 460, (4S)-2,2-dimethyl-N-{4-[4-oxo-3-(phenylamino)-4,5,6,7-tetrahydro-1H-indol-2-yl]pyridin-2-yl}-1,3-dioxolane-4-carboxamide] | 19.7
CC1(C)CC(=O)c2c([nH]c(-c3cc(Cl)ncc3Cl)c2Nc2ccccc2)C1 [Example 215, 2-(2,5-dichloropyridin-4-yl)-6,6-dimethyl-3-(phenylamino)-1,5,6,7-tetrahydro-4H-indol-4-one] | 9680
O=C1CC(C(F)(F)F)Cc2[nH]c(-c3ccncc3)c(Nc3ccccc3)c21 (single isomer, unassigned) [Example 441, 3-(phenylamino)-2-(pyridin-4-yl)-6-(trifluoromethyl)-1,5,6,7-tetrahydro-4H-indol-4-one] | 5.72
CC1(C)CC(=O)c2c([nH]c(-c3ccnc(NC(=O)c4cncs4)c3)c2Nc2ccccc2)C1 [Example 480, N-{4-[6,6-dimethyl-4-oxo-3-(phenylamino)-4,5,6,7-tetrahydro-1H-indol-2-yl]pyridin-2-yl}-1,3-thiazole-5-carboxamide] | 6.3
CN(C)c1ccc(Nc2c(-c3ccncc3)[nH]c3c2C(=O)CC(C)(C)C3)cc1 [Example 435, 3-{[4-(dimethylamino)phenyl]amino}-6,6-dimethyl-2-(pyridin-4-yl)-1,5,6,7-tetrahydro-4H-indol-4-one] | 1380
CN1C(=O)CCC1C(=O)Nc1cc(-c2[nH]c3c(c2Nc2ccccc2)C(=O)CCC3)ccn1 (centres unmarked) [Example 310, 1-methyl-5-oxo-N-{4-[4-oxo-3-(phenylamino)-4,5,6,7-tetrahydro-1H-indol-2-yl]pyridin-2-yl}-prolinamide] | 127
CC1(C)CC1C(=O)Nc1cc(-c2[nH]c3c(c2Nc2ccccc2)C(=O)CCC3)ccn1 (centres unmarked) [Example 232, 2,2-dimethyl-N-{4-[4-oxo-3-(phenylamino)-4,5,6,7-tetrahydro-1H-indol-2-yl]pyridin-2-yl}cyclopropanecarboxamide] | 34.7
O=C1CCCc2[nH]c(-c3cc(F)ncc3F)c(Nc3ccccc3)c21 [Example 218, 2-(2,5-difluoropyridin-4-yl)-3-(phenylamino)-1,5,6,7-tetrahydro-4H-indol-4-one] | 906
O=C1CCCc2[nH]c(-c3ccncc3)c(Nc3ccc(F)c(F)c3)c21 [Example 38, 3-[(3,4-difluorophenyl)amino]-2-(pyridin-4-yl)-1,5,6,7-tetrahydro-4H-indol-4-one] | 7.97
Cc1cc(COCC(=O)Nc2cc(-c3[nH]c4c(c3Nc3ccccc3)C(=O)CCC4)ccn2)no1 [Example 354, 2-[(5-methyl-1,2-oxazol-3-yl)methoxy]-N-{4-[4-oxo-3-(phenylamino)-4,5,6,7-tetrahydro-1H-indol-2-yl]pyridin-2-yl}acetamide] | 6.57
CC1(C)CC(=O)c2c([nH]c(-c3ccncc3)c2Nc2cccc(OCc3ccccc3)c2)C1 [Example 80, 3-{[3-(benzyloxy)phenyl]amino}-6,6-dimethyl-2-(pyridin-4-yl)-1,5,6,7-tetrahydro-4H-indol-4-one] | 188
CC1(C)CC(=O)c2c([nH]c(-c3ccnc(S(N)(=O)=O)c3)c2Nc2ccccc2)C1 [Example 439, 4-[6,6-dimethyl-4-oxo-3-(phenylamino)-4,5,6,7-tetrahydro-1H-indol-2-yl]pyridine-2-sulfonamide] | 649
CC1(C)CC(=O)c2c([nH]c(-c3ccncc3)c2Nc2ccc(C#N)cc2)C1 [Example 433, 4-{[6,6-dimethyl-4-oxo-2-(pyridin-4-yl)-4,5,6,7-tetrahydro-1H-indol-3-yl]amino}benzonitrile] | 2930
CC(C)C1CC(=O)c2c([nH]c(-c3ccncc3)c2Nc2ccccc2)C1 (centres unmarked) [Example 7, 3-(phenylamino)-6-(propan-2-yl)-2-(pyridin-4-yl)-1,5,6,7-tetrahydro-4H-indol-4-one] | 5.57
CC1(C)CC(=O)c2c([nH]c(-c3ccncc3)c2Nc2ccc(Cc3ccccc3)cc2)C1 [Example 513, 3-[(4-benzylphenyl)amino]-6,6-dimethyl-2-(pyridin-4-yl)-1,5,6,7-tetrahydro-4H-indol-4-one] | > 20000
CNC(=S)Nc1cc(-c2[nH]c3c(c2Nc2ccccc2)C(=O)CCC3)ccn1 [Example 392, 1-methyl-3-{4-[4-oxo-3-(phenylamino)-4,5,6,7-tetrahydro-1H-indol-2-yl]pyridin-2-yl}thiourea] | 87.5
O=C(Nc1cc(-c2[nH]c3c(c2Nc2ccccc2)C(=O)CCC3)ccn1)c1cccnc1 [Example 279, N-{4-[4-oxo-3-(phenylamino)-4,5,6,7-tetrahydro-1H-indol-2-yl]pyridin-2-yl}pyridine-3-carboxamide] | 12.6
CC(O)c1cccc(Nc2c(-c3ccncc3)[nH]c3c2C(=O)CC(C)(C)C3)c1 (centres unmarked) [Example 112, 3-{[3-(1-hydroxyethyl)phenyl]amino}-6,6-dimethyl-2-(pyridin-4-yl)-1,5,6,7-tetrahydro-4H-indol-4-one] | 3480
CC(C)(CO)C(=O)Nc1cc(-c2[nH]c3c(c2Nc2ccccc2)C(=O)CCC3)ccn1 [Example 243, 3-hydroxy-2,2-dimethyl-N-{4-[4-oxo-3-(phenylamino)-4,5,6,7-tetrahydro-1H-indol-2-yl]pyridin-2-yl}propanamide] | 255
O=C(COc1ccc(F)cc1)Nc1cc(-c2[nH]c3c(c2Nc2ccccc2)C(=O)CCC3)ccn1 [Example 462, N-[4-(3-anilino-4-oxo-4,5,6,7-tetrahydro-1H-indol-2-yl)pyridin-2-yl]-2-(4-fluorophenoxy)acetamide] | 18.2
O=C(Nc1cc(-c2[nH]c3c(c2Nc2ccccc2)C(=O)CCC3)ccn1)c1nccs1 [Example 270, N-{4-[4-oxo-3-(phenylamino)-4,5,6,7-tetrahydro-1H-indol-2-yl]pyridin-2-yl}-1,3-thiazole-2-carboxamide] | 29.4
COCCNC(=O)Nc1cc(-c2[nH]c3c(c2Nc2ccccc2)C(=O)CCC3)ccn1 [Example 383, 1-(2-methoxyethyl)-3-{4-[4-oxo-3-(phenylamino)-4,5,6,7-tetrahydro-1H-indol-2-yl]pyridin-2-yl}urea] | 69.1
CCOc1cccc(Nc2c(-c3ccncc3)[nH]c3c2C(=O)CC(C)(C)C3)c1 [Example 104, 3-[(3-ethoxyphenyl)amino]-6,6-dimethyl-2-(pyridin-4-yl)-1,5,6,7-tetrahydro-4H-indol-4-one] | 524
Cc1ncsc1COCC(=O)Nc1cc(-c2[nH]c3c(c2Nc2ccccc2)C(=O)CCC3)ccn1 [Example 496, 2-[(4-methyl-1,3-thiazol-5-yl)methoxy]-N-{4-[4-oxo-3-(phenylamino)-4,5,6,7-tetrahydro-1H-indol-2-yl]pyridin-2-yl}acetamide] | 6.46

From US10428044B2, “3-amino-1,5,6,7-tetrahydro-4H-indol-4-ones” (Bayer Pharma Aktiengesellschaft, priority 2014, dated 2019)
